Experimental findings from PMC12507958, “Modification of human metallothioneins by garlic organosulfur compounds, allicin and ajoene: direct effect on zinc homeostasis with relevance to immune regulation” (Biometals, 2025) are described below.

Common to all, as to format: binding
For assay [1], the target named is T1, MT2 (Homo sapiens, UniProt P02795).
T1 construct: gene MT2A; full-length recombinant, intein/chitin tag (pTYB21) cleaved by DTT, from E. coli BL21(DE3)pLysS; Zn7-loaded (Zn7MT2)
In words: Zn(II) release followed with PAR; adducts by ESI-MS and top-down MS. The note with it: 1 uM Zn(II)-loaded MT2, 80 uM ajoene, 100 uM PAR, 50 mM HEPES, 100 mM NaCl, pH 7.4, 25 °C; covalent (Cys within residues 29-53).

Assay [2] has as its target T2, MT1a (Homo sapiens, UniProt P04731).
T2 construct: full-length recombinant, intein/chitin tag (pTYB21) cleaved by DTT, from E. coli BL21(DE3)pLysS; Zn7-loaded
Nature of the assay: Zn(II) release followed with PAR at […] nm. Particulars: 1 uM Zn(II)-loaded MT, 80 uM allicin, 200 uM PAR, 50 mM HEPES, 100 mM NaCl, pH 7.4, 25 °C; covalent (Cys S-thioallylation).

The target of assay [3] is T3, MT4 (Homo sapiens, UniProt P47944).
T3 construct: full-length recombinant, intein/chitin tag (pTYB21) cleaved by DTT, from E. coli BL21(DE3)pLysS; Zn7-loaded
In words: Zn(II) release followed with PAR at […] nm. Particulars: 1 uM Zn(II)-loaded MT, 80 uM allicin, 200 uM PAR, 50 mM HEPES, 100 mM NaCl, pH 7.4, 25 °C; covalent (Cys S-thioallylation).

The target of assay [4] is T4, MT3 (Homo sapiens, UniProt P25713).
T4 construct: full-length recombinant, intein/chitin tag (pTYB21) cleaved by DTT, from E. coli BL21(DE3)pLysS; Zn7-loaded
Nature of the assay: Zn(II) release followed with PAR at […] nm. The note with it: 1 uM Zn(II)-loaded MT, 80 uM allicin, 200 uM PAR, 50 mM HEPES, 100 mM NaCl, pH 7.4, 25 °C; covalent (Cys S-thioallylation).

The target of assay [5] is T1, MT2. In words: Zn(II) release followed with PAR; adducts by ESI-MS and top-down MS. Particulars: 1 uM Zn(II)-loaded MT2, 80 uM allicin, 100 uM PAR, 50 mM HEPES, 100 mM NaCl, pH 7.4; covalent (S-thioallylation, Cys within residues 19-30).

T1 sequence (P02795 whole entry): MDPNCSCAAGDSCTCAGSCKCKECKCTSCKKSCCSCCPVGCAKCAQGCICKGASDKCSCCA
T4 sequence (P25713 whole entry): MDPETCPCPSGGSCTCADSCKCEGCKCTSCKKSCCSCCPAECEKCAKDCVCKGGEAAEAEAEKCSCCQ
T3 sequence (P47944 whole entry): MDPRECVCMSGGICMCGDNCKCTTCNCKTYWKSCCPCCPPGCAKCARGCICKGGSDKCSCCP
T2 sequence (P04731 whole entry): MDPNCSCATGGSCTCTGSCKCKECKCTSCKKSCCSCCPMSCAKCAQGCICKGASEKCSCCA

As for `C=CCSSC=CC[S+]([O-])CC=C` (centres unmarked) [ajoene], in assay [1], the “Zn(II) mol. eq. dissociated after 60 min” value is reported as “almost 6”.

Take `C=CCS[S+]([O-])CC=C` (centres unmarked) [allicin]: the “Zn(II) mol. eq. dissociated after 60 min” value was 5 mol. eq in assay [2], 2.8 mol. eq in assay [3] and 5.2 mol. eq in assay [4]. Further, the “Zn(II) mol. eq. dissociated after 1 h” value in assay [5] was determined as 5.3 mol. eq.
